These results are taken from ChEMBL document CHEMBL3414444, “Antiplasmodial activity: the first proof of inhibition of heme crystallization by marine isonitriles” (Eur J Med Chem, 2015).

SMILES strings stand for the structures. Some results are limits rather than exact numbers.

The subject of data set [1] is Plasmodium falciparum. Put plainly: Antiplasmodial activity against Plasmodium falciparum K1. It counts as functional, organism-based.
The subject of data set [2] is Plasmodium falciparum. Put plainly: Antiplasmodial activity against Plasmodium falciparum W2. It is filed as functional, organism-based.
The nature of data set [3]: Inhibition of beta-hematin formation after 3 to 5 mins by EBHIA assay. It counts as physicochemical.
Data set [4] relates to Plasmodium falciparum. Put plainly: Antiplasmodial activity against Plasmodium falciparum D6. It counts as functional, organism-based.
In data set [5] the test system is Plasmodium falciparum. Put plainly: Antiplasmodial activity against Plasmodium falciparum NF54. It counts as functional, organism-based.

In the case of `CC(C)=CCC[C@@H](C)[C@H]1CC[C@](C)(N=C=S)[C@H]2CCC(C)=C[C@H]12`, in the data set on Plasmodium falciparum [1], the IC50 was > 30000 nM. For the compound `[C-]#[N+][C@@]1(C)CC[C@H]2[C@H]3[C@@H](C(=C)CC[C@@H]31)[C@@H](C=C(C)C)C[C@@H]2C`, in the data set on Plasmodium falciparum [2], the IC50 was 423 nM. Moreover, the “inhibition (INH)” value in data set [3] came to 14%. Turning to `[C-]#[N+][C@]1(C)CC[C@H](/C(C)=C\C=C\C(C)C)CC1`, in data set [3], the “inhibition (INH)” value amounted to 62%. As to `[C-]#[N+][C@@]1(C)CC[C@H]2[C@H]3[C@H]4C(=CC(C)(C)C[C@@H]4C[C@@H]2C)CC[C@@H]31`, the results for the IC50 in the data set on Plasmodium falciparum [4], in the data set with Plasmodium falciparum [1] and in the data set with Plasmodium falciparum [2] were 84 nM, 24 nM and 24 nM, respectively. In addition, the “inhibition (INH)” value in data set [3] is reported as 26%. In the case of `CC1=CC2C(CC1)[C@](C)(N=C=S)CC[C@@H]2C(C)C` (stereo partly drawn), the IC50 in the data set with Plasmodium falciparum [5] and with Plasmodium falciparum [1] was 5700 nM in each case. Further, the “inhibition (INH)” value in data set [3] came to 71%.

In the case of `CCN(CC)CCCC(C)Nc1ccnc2cc(Cl)ccc12` (stereo not drawn) [CHLOROQUINE], the “inhibition (INH)” value in data set [3] was found to be 4%.

As for `[C-]#[N+][C@@]1(C)CC[C@H]2[C@H]3[C@@H]4[C@H](C[C@@H](C)[C@@](C)(N=C=O)[C@H]4CC[C@@H]31)C[C@@H]2C`, half-maximal inhibition in the data set with Plasmodium falciparum [1] (IC50) was put at 9 nM.

By IC50 is commonly meant the concentration needed to halve the response being measured.
